Measurements from patent publication US7498409B2, “Screening assay for TLR7, TLR8 and TLR9 agonists and antagonists” (Schering Corporation, priority 2005, dated 2009).
Values belong to the compound of their own block, whether it stands above or below them.

How the values were obtained:
[1] = molecular target: T1, mutant TLR8 containing a deletion in the second LRR (Homo sapiens, UniProt Q9NR97, DEL100-104); assay: NFκB-luciferase reporter assay in transfected HEK 293 cells, mutant TLR8 (pCMVhuTLR8Δ2); type: cell-based; details: HEK 293, 5 h
T1 construct: expressed in transfected cells; host or cells: HEK 293
T1 sequence (Q9NR97 with tags, fused parts or gaps DEL100-104): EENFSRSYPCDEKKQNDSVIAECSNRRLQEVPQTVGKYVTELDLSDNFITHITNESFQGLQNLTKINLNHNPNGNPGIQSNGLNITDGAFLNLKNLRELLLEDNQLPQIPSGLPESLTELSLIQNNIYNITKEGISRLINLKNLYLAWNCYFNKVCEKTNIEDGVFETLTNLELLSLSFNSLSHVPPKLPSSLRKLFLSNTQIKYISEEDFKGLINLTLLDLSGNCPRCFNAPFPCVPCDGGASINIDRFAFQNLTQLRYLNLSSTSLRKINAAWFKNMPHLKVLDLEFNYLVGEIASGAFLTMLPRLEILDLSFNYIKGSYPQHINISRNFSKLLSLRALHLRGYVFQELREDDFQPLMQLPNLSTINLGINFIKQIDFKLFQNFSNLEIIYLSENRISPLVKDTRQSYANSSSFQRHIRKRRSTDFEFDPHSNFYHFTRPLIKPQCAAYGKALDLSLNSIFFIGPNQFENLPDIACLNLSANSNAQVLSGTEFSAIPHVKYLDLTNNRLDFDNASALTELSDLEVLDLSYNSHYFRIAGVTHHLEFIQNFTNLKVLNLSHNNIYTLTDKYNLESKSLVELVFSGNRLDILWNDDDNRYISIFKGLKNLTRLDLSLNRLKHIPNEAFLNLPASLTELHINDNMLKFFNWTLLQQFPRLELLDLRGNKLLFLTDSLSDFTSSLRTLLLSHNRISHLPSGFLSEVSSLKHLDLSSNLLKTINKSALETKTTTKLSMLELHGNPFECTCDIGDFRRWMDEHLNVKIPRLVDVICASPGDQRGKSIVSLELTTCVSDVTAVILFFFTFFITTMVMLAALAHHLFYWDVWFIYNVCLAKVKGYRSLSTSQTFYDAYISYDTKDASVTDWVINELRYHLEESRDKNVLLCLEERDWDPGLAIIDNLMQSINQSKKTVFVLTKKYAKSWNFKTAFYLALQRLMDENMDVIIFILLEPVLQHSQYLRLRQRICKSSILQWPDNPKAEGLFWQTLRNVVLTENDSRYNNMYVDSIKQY
From the text: The mutation was confirmed by DNA sequencing.
(§1) Wells without agonist served as negative controls.

wild-type TLR8 = molecular target: T2, wild-type TLR8 (Homo sapiens, UniProt Q9NR97); assay: NFκB-luciferase reporter assay in transfected HEK 293 cells, wild-type TLR8; type: cell-based
T2 construct: printed for the mutant only, inferred for the wild type (N); expressed in transfected cells; host or cells: HEK 293
T2 sequence (Q9NR97 1-1059 isoform Q9NR97-2): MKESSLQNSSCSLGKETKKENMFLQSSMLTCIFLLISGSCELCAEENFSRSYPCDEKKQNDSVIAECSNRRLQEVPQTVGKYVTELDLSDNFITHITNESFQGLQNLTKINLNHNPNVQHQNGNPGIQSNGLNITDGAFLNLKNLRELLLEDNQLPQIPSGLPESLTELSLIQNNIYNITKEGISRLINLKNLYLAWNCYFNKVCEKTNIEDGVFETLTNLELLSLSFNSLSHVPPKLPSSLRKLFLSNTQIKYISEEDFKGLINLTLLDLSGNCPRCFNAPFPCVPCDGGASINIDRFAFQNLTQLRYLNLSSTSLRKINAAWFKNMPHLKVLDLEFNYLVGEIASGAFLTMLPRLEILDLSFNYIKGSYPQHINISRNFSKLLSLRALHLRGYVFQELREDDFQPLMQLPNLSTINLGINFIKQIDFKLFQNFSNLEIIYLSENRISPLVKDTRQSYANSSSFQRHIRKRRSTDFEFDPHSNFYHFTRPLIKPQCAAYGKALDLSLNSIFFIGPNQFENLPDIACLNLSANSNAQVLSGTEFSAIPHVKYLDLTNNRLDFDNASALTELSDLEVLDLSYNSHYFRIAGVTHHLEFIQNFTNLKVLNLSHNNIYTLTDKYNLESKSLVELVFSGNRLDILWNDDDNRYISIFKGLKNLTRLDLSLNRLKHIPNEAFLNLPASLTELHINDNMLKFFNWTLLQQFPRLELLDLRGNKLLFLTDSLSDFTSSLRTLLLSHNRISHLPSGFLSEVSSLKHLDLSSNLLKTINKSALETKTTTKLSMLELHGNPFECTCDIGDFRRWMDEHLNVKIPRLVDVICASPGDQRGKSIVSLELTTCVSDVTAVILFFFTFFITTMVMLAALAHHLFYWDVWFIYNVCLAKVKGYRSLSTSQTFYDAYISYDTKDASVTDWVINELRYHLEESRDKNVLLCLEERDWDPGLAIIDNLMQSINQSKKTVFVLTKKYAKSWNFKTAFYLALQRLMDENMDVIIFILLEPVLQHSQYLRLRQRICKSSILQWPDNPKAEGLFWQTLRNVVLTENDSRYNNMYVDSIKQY
From the text: as §1

[2] = test system: mutant TLR7 containing a deletion in the second LRR; assay: NFκB-luciferase reporter assay in transfected HEK 293 cells, mutant TLR7 (pCMVhuTLR7Δ2); type: cell-based, human; design: fold lower concentration sufficient for full activation of mutant TLR7 versus wild-type TLR7: dose or concentration left out as unconfirmed
From the text: (§2) ID NO: 11) and the antisense primer [NT] ID NO: 12). […] The mutation was confirmed by DNA sequencing. […] Wells without agonist served as negative controls.

[3] = molecular target: T3, mutant TLR7 containing a deletion in the second LRR (Homo sapiens, UniProt Q9NYK1, DEL102-106); assay: as above; type: cell-based; design: fold lower concentration sufficient for full activation of mutant TLR7 versus wild-type TLR7: dose or concentration left out as unconfirmed
T3 construct: expressed in transfected cells; host or cells: HEK 293
T3 sequence (Q9NYK1 with tags, fused parts or gaps DEL102-106): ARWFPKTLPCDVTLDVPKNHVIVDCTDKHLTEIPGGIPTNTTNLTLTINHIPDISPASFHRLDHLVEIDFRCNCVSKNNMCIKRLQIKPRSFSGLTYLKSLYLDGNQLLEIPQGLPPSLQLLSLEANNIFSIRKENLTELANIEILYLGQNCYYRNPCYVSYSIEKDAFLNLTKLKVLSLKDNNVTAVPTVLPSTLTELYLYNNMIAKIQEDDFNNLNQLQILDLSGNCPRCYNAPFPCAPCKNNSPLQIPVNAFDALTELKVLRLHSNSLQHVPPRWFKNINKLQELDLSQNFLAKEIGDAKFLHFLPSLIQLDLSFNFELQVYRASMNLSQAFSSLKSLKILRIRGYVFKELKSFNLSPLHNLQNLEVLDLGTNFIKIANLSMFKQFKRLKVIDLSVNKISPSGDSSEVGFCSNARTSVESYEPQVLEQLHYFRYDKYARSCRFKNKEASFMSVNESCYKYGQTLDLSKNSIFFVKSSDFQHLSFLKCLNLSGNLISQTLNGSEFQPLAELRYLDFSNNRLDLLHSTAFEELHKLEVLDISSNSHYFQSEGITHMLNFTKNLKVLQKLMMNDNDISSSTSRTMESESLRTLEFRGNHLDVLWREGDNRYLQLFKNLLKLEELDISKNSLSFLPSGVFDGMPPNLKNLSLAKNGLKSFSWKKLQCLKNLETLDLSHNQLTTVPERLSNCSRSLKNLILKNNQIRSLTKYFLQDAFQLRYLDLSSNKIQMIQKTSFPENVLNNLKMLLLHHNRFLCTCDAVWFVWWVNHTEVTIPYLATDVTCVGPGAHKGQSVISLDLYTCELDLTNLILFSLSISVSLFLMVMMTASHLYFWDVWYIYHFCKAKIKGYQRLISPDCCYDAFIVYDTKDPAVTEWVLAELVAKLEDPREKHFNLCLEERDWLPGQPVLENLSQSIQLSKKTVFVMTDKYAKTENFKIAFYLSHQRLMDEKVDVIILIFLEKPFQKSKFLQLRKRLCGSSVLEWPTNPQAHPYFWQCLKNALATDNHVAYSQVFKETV
From the text: as §2

wild-type TLR7 = molecular target: T4, wild-type TLR7 (Homo sapiens, UniProt Q9NYK1); assay: NFκB-luciferase reporter assay in transfected HEK 293 cells, wild-type TLR7; type: cell-based
T4 construct: expressed in transfected cells; host or cells: HEK 293
T4 sequence (Q9NYK1 27-1049): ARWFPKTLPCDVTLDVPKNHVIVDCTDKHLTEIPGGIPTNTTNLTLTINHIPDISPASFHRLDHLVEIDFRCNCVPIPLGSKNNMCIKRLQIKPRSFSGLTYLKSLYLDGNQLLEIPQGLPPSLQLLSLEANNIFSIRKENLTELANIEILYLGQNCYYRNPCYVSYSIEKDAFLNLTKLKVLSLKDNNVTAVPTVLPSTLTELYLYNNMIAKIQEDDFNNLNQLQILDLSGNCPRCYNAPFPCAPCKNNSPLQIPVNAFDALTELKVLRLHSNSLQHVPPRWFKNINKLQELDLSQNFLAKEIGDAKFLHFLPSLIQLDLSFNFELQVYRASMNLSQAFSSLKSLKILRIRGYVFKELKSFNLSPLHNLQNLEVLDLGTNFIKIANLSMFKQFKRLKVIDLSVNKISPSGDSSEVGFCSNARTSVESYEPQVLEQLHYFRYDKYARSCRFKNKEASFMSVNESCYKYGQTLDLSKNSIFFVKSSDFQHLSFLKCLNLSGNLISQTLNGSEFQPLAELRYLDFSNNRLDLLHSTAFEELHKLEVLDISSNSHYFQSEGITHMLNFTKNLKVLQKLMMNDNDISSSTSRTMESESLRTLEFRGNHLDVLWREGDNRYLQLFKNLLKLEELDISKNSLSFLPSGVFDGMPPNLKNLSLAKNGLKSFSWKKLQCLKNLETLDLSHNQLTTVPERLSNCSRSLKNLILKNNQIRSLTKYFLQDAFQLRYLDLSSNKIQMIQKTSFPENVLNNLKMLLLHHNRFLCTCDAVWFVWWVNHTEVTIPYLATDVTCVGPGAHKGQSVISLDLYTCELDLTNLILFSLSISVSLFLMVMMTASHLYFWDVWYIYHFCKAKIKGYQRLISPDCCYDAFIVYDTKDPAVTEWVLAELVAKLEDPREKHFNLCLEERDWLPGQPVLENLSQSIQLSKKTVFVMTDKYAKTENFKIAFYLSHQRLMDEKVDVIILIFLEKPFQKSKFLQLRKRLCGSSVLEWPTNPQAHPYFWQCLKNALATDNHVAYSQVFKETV
From the text: as §1

induction of luciferase ([1]; 50 nm of R848): ~10 fold
concentration required to achieve 5-fold induction of luciferase (wild-type TLR8; HEK 293, NFκB-luciferase): at least 0.5 μM
induction of luciferase activity ([3]; 10 nM R848, HEK 293, 5 h, vs medium alone): 6 fold
activation of wild-type TLR7 (luciferase activity) (wild-type TLR7; 10 nM R848, HEK 293, 5 h): did not result in significant activation
concentration giving close-to-maximum activation of wild-type TLR7 (wild-type TLR7; HEK 293, NFκB-luciferase): 1 µM
Structure (SMILES): CCOCc1nc2c(N)nc3ccccc3c2n1CC(C)(C)O [R848]
fold lower concentration sufficient for full activation of mutant TLR7 versus wild-type TLR7 ([2]; compared with for wild-type TLR7): 10 fold

concentration achieving the same activation with mutant TLR7 ([3]; same activation as wild-type TLR7 at >0.5 mM): 0.1 mM
concentration at which wild-type TLR7 is activated (wild-type TLR7; HEK 293, NFκB-luciferase): greater than 0.5 mM
Structure (SMILES): C=CCn1c(=O)n([C@@H]2O[C@H](CO)[C@@H](O)[C@H]2O)c2nc(N)[nH]c(=O)c21 [loxoribine]
fold lower concentration for same activation of mutant TLR7 versus wild-type TLR7 ([2]; 0.1 mM versus 0.5 mM): 5 fold

activation of mutant TLR8 (luciferase) ([1]; 4.5 mM uridine): 15 fold
activation of wild-type TLR8 (luciferase) (wild-type TLR8; 4.5 mM uridine, HEK 293, 5 h): 3 fold
Structure (SMILES): O=c1ccn([C@@H]2O[C@H](CO)[C@@H](O)[C@H]2O)c(=O)[nH]1 [uridine]
